From patent US20230286973A1, “PROTEIN SECRETION INHIBITORS” (KEZAR LIFE SCIENCES, priority 2020, published 2023)

Key:
[1] = tested on: PD1-ss+10aa/Gaussia Luciferase; assay: Dox-Induced PD1-ss-Gluc Assay; format: cell-based; details: 24 hr Dox induction; 293FRT/TO cells; read-out: 24 hr Dox Inducible PD1ssGluc 293FRT/TO: Mean IC50
In short: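 The cell line was made by transfecting Flp-In 293 T-REx cells with a PD1 signal sequence+10aa–Gaussia luciferase fusion under T-REx control and selecting with hygromycin and blasticidin. Cells were seeded, and next day compound plus doxycycline was added at 37 °C, 5% CO2.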

[2] = Liver Microsome Stability Assay (rat); details: rat liver microsomes, with NADPH, 1.0 uM compound
Protocol: (§1) Stability of a compound was assessed in the presence of liver microsomes from various sources—mouse, rat, monkey and human liver microsomes. 1.0 uM compound, 0.4% DMSO in 0.1 M Potassium Phosphate with 1.0 mg/mL liver microsomes, were incubated at 37° C. with or without 1 mM NADPH. The samples were quenched at 0, and 30 minutes.

[3] = tested on: IL-2-FL/Gaussia Luciferase; assay: Dox Induced IL2-FL-Gluc Assay; format: cell-based; details: for IC50: 24 hr Dox induction, 293FRT/TO cells, read-out: 24 hr Dox Inducible IL2FLGluc 293FRT/TO: Mean IC50; for 24 hr Dox Inducible IL2FLGluc 293FRT/TO: IL2/PD1: ratio of IL2FLGluc IC50 to PD1ssGluc IC50
In short: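 A hygromycin- and blasticidin-resistant 293 T-REx clone carrying inducible IL-2–Gaussia luciferase (full-length IL-2, residues 1-153) serves as the cell system. After overnight plating, the cells get test compounds together with doxycycline in DMSO/media and are incubated at 37° C, 5% CO2.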

[4] = Liver Microsome Stability Assay (human); details: human liver microsomes, with NADPH, 1.0 uM compound
Protocol: as §1

[5] = Liver Microsome Stability Assay (mouse); details: mouse liver microsomes, with NADPH, 1.0 uM compound
Protocol: as §1

[6] = tested on: HER3-ss+4aa/Gaussia Luciferase; assay: Dox-Induced Her3-ss-Gluc Assay; format: cell-based; details: 24 hr Dox induction; 293FRT/TO cells; read-out: 24 hr Dox Inducible Her3(ss + 4)Gluc 293FRT/TO: Mean IC50
In short: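 Doxycycline-inducible HER3 signal sequence+4aa/Gaussia luciferase construct, stably integrated in Flp-In 293 T-REx cells; compound dilutions applied with doxycycline at 37° C., 5% CO2.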

[7] = Liver Microsome Stability Assay (monkey); details: monkey liver microsomes, with NADPH, 1.0 uM compound
Protocol: as §1

[8] = tested on: multiple myeloma cell line U266B1; assay: U266 Cell Viability Assay; format: cell-based, human; details: Homo sapiens, U-266, 48 h, U266B1 cells, Celltiter-Glo
In short: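 After growth in serum-supplemented RPMI 1640, cells received serially diluted compound in DMSO/media and were kept 48 hours before a CellTiter-Glo luminescence readout.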

[9] = tested on: TNFα-FL/Gaussia Luciferase; assay: Dox Induced TNFα-FL-Gluc Assay; format: cell-based; details: for IC50: 24 hr Dox induction, 293FRT/TO cells, read-out: 24 hr Dox Inducible TNFaFLGluc 293FRT/TO: Mean IC50; for 24 hr Dox Inducible TNFaFLGluc 293FRT/TO: TNF/PD1: ratio of TNFaFLGluc IC50 to PD1ssGluc IC50
In short: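 Hygromycin/blasticidin-selected Flp-In 293 T-REx cells, TNFα-FL/Gaussia luciferase fusion under T-REx control; overnight plating, then compound in DMSO/media with doxycycline at 37 °C, 5% CO2; stereo-undefined structures tested as mixtures.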

[10] = tested on: multiple myeloma cell line NCI-H929; assay: H929 Cell Viability Assay; format: cell-based, human; details: Homo sapiens, NCI-H929, 48 h, NCI-H929 cells, Celltiter-Glo
In short: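 A 48-hour compound treatment of cells in 10% FBS RPMI medium was followed by luciferase-based viability quantification.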

| IC50 [1] [µM] | Liver Microsome Stability (Multiple Species): Rat - % Remaining after 30 min w/NADPH [2] [%] | IC50 [3] [µM] | Liver Microsome Stability (Multiple Species): Human - % Remaining after 30 min w/NADPH [4] [%] | Liver Microsome Stability (Multiple Species): Mouse - % Remaining after 30 min w/NADPH [5] [%] | IC50 [6] [µM] | Liver Microsome Stability (Multiple Species): Monkey - % Remaining after 30 min w/NADPH [7] [%] | EC50 [8] [µM] | IC50 [9] [µM] | EC50 [10] [µM] | Compound | 24 hr Dox Inducible IL2FLGluc 293FRT/TO: IL2/PD1 [3] | 24 hr Dox Inducible TNFaFLGluc 293FRT/TO: TNF/PD1 [9] |
| --- | --- | --- | --- | --- | --- | --- | --- | --- | --- | --- | --- | --- |
| > 20.9 | 1.14 | > 25 | 6.56 | 0.49 | > 25 | 0.09 | > 25 | > 25 | > 25 | CC(C)n1cnc(/C=C/c2csc(NC(=O)c3cccn3Cc3cccnc3)n2)c1 [Compound B63, (E)-N-(4-(2-(1-isopropyl-1H-imidazol-4-yl)vinyl)thiazol-2-yl)-1-(pyridin-3-ylmethyl)-1H-pyrrole-2-carboxamide] | <=>1.2 | <=>1.20 |
| 15.5 | 0.18 | > 25 | 0.09 | 0.11 | > 25 | 0.35 | > 25 | > 25 | 13.4 | CC(C)c1ccc(/C=C/c2csc(NC(=O)c3cccn3Cc3cccnc3)n2)nc1 [Compound B66, (E)-N-(4-(2-(5-isopropylpyridin-2-yl)vinyl)thiazol-2-yl)-1-(pyridin-3-ylmethyl)-1H-pyrrole-2-carboxamide] | >1.6 | >1.61 |
| 0.348 | 19.9 | > 25 | 0.5 | 14 | 18.2 | 0.07 | 14.6 | > 25 | 10.1 | CC(C)n1cnc(/C=C/c2csc(NC(=O)c3cccn3Cc3cc(F)nc(F)c3)n2)c1 [Compound B68, (E)-1-((2,6-difluoropyridin-4-yl)methyl)-N-(4-(2-(1-isopropyl-1H-imidazol-4-yl)vinyl)thiazol-2-yl)-1H-pyrrole-2-carboxamide] | >72 | >71.9 |

Continued, compound first:

| Compound | IC50 [1] [µM] | Liver Microsome Stability (Multiple Species): Rat - % Remaining after 30 min w/NADPH [2] [%] | IC50 [3] [µM] | Liver Microsome Stability (Multiple Species): Human - % Remaining after 30 min w/NADPH [4] [%] | Liver Microsome Stability (Multiple Species): Mouse - % Remaining after 30 min w/NADPH [5] [%] | IC50 [6] [µM] | Liver Microsome Stability (Multiple Species): Monkey - % Remaining after 30 min w/NADPH [7] [%] | EC50 [8] [µM] | IC50 [9] [µM] | EC50 [10] [µM] | 24 hr Dox Inducible IL2FLGluc 293FRT/TO: IL2/PD1 [3] | 24 hr Dox Inducible TNFaFLGluc 293FRT/TO: TNF/PD1 [9] |
| --- | --- | --- | --- | --- | --- | --- | --- | --- | --- | --- | --- | --- |
| O=C(Nc1nc(/C=C/c2ccc3c(n2)CCCC3)cs1)c1cccn1Cc1ccnc(F)c1 [Compound B60, (E)-1-((2-fluoropyridin-4-yl)methyl)-N-(4-(2-(5,6,7,8-tetrahydroquinolin-2-yl)vinyl)thiazol-2-yl)-1H-pyrrole-2-carboxamide] | 0.14 | 1.16 | 1.75 | 0.33 | 0.45 | 0.725 | 2.65 | 15.8 | > 25 | 12.8 | 13 | >179 |
| O=C(Nc1nc(/C=C/c2cccc(=O)[nH]2)cs1)c1cccn1Cc1ccnc(F)c1 [Compound B61] | > 25 | 12.3 | > 25 | 0.96 | 9.41 | > 25 | 0.5 | > 25 | > 25 | > 25 | <=>1.0 | <=>1.00 |
| O=C(Nc1nc(/C=C/c2cn3c(n2)CCC3)cs1)c1cccn1Cc1ccnc(F)c1 [Compound B62, (E)-N-(4-(2-(6,7-dihydro-5H-pyrrolo[1,2-a]imidazol-2-yl)vinyl)thiazol-2-yl)-1-((2-fluoropyridin-4-yl)methyl)-1H-pyrrole-2-carboxamide] | 0.321 | 2.51 | > 25 | 0.2 | 11.5 | > 25 | 2.64 | > 25 | > 25 | > 24.3 | >78 | >77.9 |
| CC(C)c1ccc(/C=C/c2csc(NC(=O)c3cccn3Cc3ccnc(F)c3)n2)nc1 [Compound B64, (E)-1-((2-fluoropyridin-4-yl)methyl)-N-(4-(2-(5-isopropylpyridin-2-yl)vinyl)thiazol-2-yl)-1H-pyrrole-2-carboxamide] | 0.0206 | 0.46 | 1.72 | 0.37 | 0.29 | 0.784 | 0.12 | > 22.2 | 18.4 | 15.7 | 84 | 894 |
| CCn1cnc(/C=C/c2csc(NC(=O)c3cccn3Cc3ccnc(F)c3)n2)c1 [Compound B65, (E)-N-(4-(2-(1-ethyl-1H-imidazol-4-yl)vinyl)thiazol-2-yl)-1-((2-fluoropyridin-4-yl)methyl)-1H-pyrrole-2-carboxamide] | 0.12 | 4.75 | > 25 | 0.18 | 7.82 | > 25 | 0.08 | > 25 | > 25 | 24.5 | >210 | >208 |
| CC(C)c1nc(/C=C/c2csc(NC(=O)c3cccn3Cc3ccnc(F)c3)n2)cn1C [Compound B67, (E)-1-((2-fluoropyridin-4-yl)methyl)-N-(4-(2-(2-isopropyl-1-methyl-1H-imidazol-4-yl)vinyl)thiazol-2-yl)-1H-pyrrole-2-carboxamide] | 5.37 | 1.32 | 19.1 | 0.16 | 2.2 | 18.5 | 0.13 | 19.7 | > 25 | 21 | 3.6 | >4.66 |
| CCn1cnc(/C=C/c2csc(NC(=O)c3cccn3Cc3ccncc3)n2)c1 [Compound B69, (E)-N-(4-(2-(1-ethyl-1H-imidazol-4-yl)vinyl)thiazol-2-yl)-1-(pyridin-4-ylmethyl)-1H-pyrrole-2-carboxamide] | 0.119 | 0.28 | > 25 | 0.01 | 0.32 | > 25 | 0.04 | > 25 | > 25 | > 25 | >210 | >209 |
